In patent publication US7468377B2, “Imidazopyridine-derivatives as inductible no-synthase inhibitors” (Altana Pharma AG, priority 2003, dated 2008):

Experiments:
[1] = biological target: human inducible NO-synthase (Homo sapiens, UniProt P35228); experiment: Measurement of inducible NO-synthase activity ([3H]arginine conversion); assay type: biochemical; settings: crude cytosolic fraction containing human inducible NO-synthase; 0.1 μM arginine; 45 to 60 min at 37° C; read-out: Inhibition of iNOS activity [measured as −logIC50 (mol/l)] (converted)
Protocol: Measurement of Inducible NO-Synthase Activity
The assay is performed in 96-well microtiter F-plates (Greiner, Frickenhausen, FRG) in a total volume of 100 μl in the presence of 100 nM calmodulin, 226 μM CaCl2, 477 μM MgCl2, 5 μM flavin-adenine-dinucleotide (FAD), 5 μM flavin mononucleotide (FMN), 0.1 mM NADPH, 7 mM glutathione, 10 μM BH4 and 100 mM HEPES pH 7.2. Arginine concentrations are 0.1 μM for enzyme inhibition experiments. 150000 dpm of [^3H]arginine are added to the assay mixture. Enzyme reaction is started by the addition of 4 μg of a crude cytosolic fraction containing human inducible NO-synthase and the reaction mixture is incubated for 45 to 60 min at 37° C. Enzyme reaction is stopped by adding 10 μl of 2M MES-buffer pH 5,0. 50 μl of the incubation mixture are transferred into a MADP N65 filtration microtiter plate (Millipore, Eschborn, FRG) containing already 50 μl of AG-50W-X8 cation exchange resin (Biorad, München, FRG). The resin in the Na loaded form is preequilibrated in water and 70 μl (corresponding to 50 μl dry beads) are pipetted under heavy stirring with a 8 channel pipette into the filtration plate. After pipetting 50 μl of the enzyme reaction mixture onto the filtration plates, the plates are placed on a filtration manifold (Porvair, Shepperton, UK) and the flow through is collected in Pico scintillation plates (Packard, Meriden, Conn.). The resin in the filtration plates is washed with 75 μl of water (1×50 μl and 1×25 μl) which is also collected in the same plate as the sample. The total flow through of 125 μl is mixed with 175 μl of Microscint-40 scintillation cocktail (Packard) and the scintillation plate is sealed with TopSeal P-foil (Packard). Scintillation plates are counted in a szintillation counter.
For the measurement of inducible NO-synthase-inhibiting potencies of compounds increasing concentrations of inhibitors were included into the incubation mixture. IC50-values were calculated from the percent inhibition at given concentrations by nonlinear least square fitting.
The inhibitory values determined for the compounds according to the invention follow from the following table A, in which the compound numbers correspond to the example numbers.

Row | Compound | melting point | IC50 [1]
1 | COc1ccnc(CCc2nc3cc(-c4ccc(S(=O)(=O)N(C)C)cc4)cnc3[nH]2)c1 [compound 1, 4-{2-[2-(4-Methoxypyridin-2-yl)ethyl]-3H-imidazo[4,5-b]pyridin-6-yl}-N,N-dimethyl-benzenesulfonamide] | 217 to 218 °C | 14.8 nM
2 | CCN(CC)S(=O)(=O)c1ccc(-c2cnc3[nH]c(CCc4cc(OC)ccn4)nc3c2)cc1 [compound 2, N,N-Diethyl-4-{2-[2-(4-methoxypyridin-2-yl)ethyl]-3H-imidazo-[4,5-b]pyridin-6-yl}benzenesulfonamide] | 127 to 129 °C | 35.5 nM
3 | CNS(=O)(=O)c1ccc(-c2cnc3[nH]c(CCc4cc(OC)ccn4)nc3c2)cc1 [compound 3, 4-{2-[2-(4-Methoxypyridin-2-yl)ethyl]-3H-imidazo[4,5-b]pyridin-6-yl}-N-methyl-benzenesulfonamide] | 225 to 227 °C | 13.8 nM
4 | COc1ccnc(CCc2nc3cc(-c4ccc(S(N)(=O)=O)cc4)cnc3[nH]2)c1 [compound 4, 4-{2-[2-(4-Methoxypyridin-2-yl)ethyl]-3H-imidazo[4,5-b]pyridin-6-yl}-benzenesulfonamide] | 216 to 218 °C | 14.8 nM
5 | CCNS(=O)(=O)c1ccc(-c2cnc3[nH]c(CCc4cc(OC)ccn4)nc3c2)cc1 [compound 5, N-Ethyl-4-{2-[2-(4-methoxypyridin-2-yl)ethyl]-3H-imidazo-[4,5-b]pyridin-6-yl}benzenesulfonamide] | 214 to 216 °C | 24 nM
6 | COc1ccnc(CCc2nc3cc(-c4ccc(S(=O)(=O)N(C)C)c(F)c4)cnc3[nH]2)c1 [compound 6, 2-Fluoro-4-{2-[2-(4-methoxypyridin-2-yl)ethyl]-3H-imidazo[4,5-b]pyridin-6-yl}-N,N-dimethyl-benzenesulfonamide] | 211 to 212 °C | 21.4 nM
